{"source": "patent US20230285286A1", "about": "“DRUG VEHICLE COMPOSITIONS AND METHODS OF USE THEREOF” (PS Therapy, Inc., priority 2016, published 2023)", "origin": "cited, not measured here", "key": {"[1]": {"details": "deionized water at 25° C."}}, "note": "Structures can show the parent of a compound that is named as a salt.", "data": [{"molecule": "CN1CCC(=C2c3ccccc3CCn3c(C=O)cnc32)CC1", "note": "[Alcaftadine]", "values": [{"measurement": "LogP Value", "result": 3.2}, {"measurement": "Solubility in Water (PPM)", "setting": "[1]", "result": 17, "unit": "PPM"}]}, {"molecule": "CN1CCCC(n2nc(Cc3ccc(Cl)cc3)c3ccccc3c2=O)CC1", "note": "(centres unmarked) [Azelastine HCl]", "values": [{"measurement": "LogP Value", "result": 3.81}, {"measurement": "Solubility in Water (PPM)", "setting": "[1]", "result": 35, "unit": "PPM"}]}, {"molecule": "CC[C@H]1OC(=O)[C@H](C)[C@@H](O[C@H]2C[C@@](C)(OC)[C@@H](O)[C@H](C)O2)[C@H](C)[C@@H](O[C@@H]2O[C@H](C)C[C@H](N(C)C)[C@H]2O)[C@](C)(O)C[C@@H](C)CN(C)[C@H](C)[C@@H](O)[C@]1(C)O", "note": "[Azithromycin]", "values": [{"measurement": "LogP Value", "result": 3.03}, {"measurement": "Solubility in Water (PPM)", "setting": "[1]", "result": 2.37, "unit": "PPM"}]}, {"molecule": "O=C(O)CCCN1CCC(O[C@@H](c2ccc(Cl)cc2)c2ccccn2)CC1.O=S(=O)(O)c1ccccc1", "note": "[Bepotastine Besilate]", "values": [{"measurement": "Solubility in Water (PPM)", "setting": "[1]", "result": 50, "unit": "PPM"}]}, {"molecule": "N[C@@H]1CCCCN(c2c(F)cc3c(=O)c(C(=O)O)cn(C4CC4)c3c2Cl)C1", "note": "[Besifloxacin]", "values": [{"measurement": "LogP Value", "result": 0.54}, {"measurement": "Solubility in Water (PPM)", "setting": "[1]", "result": 0, "unit": "PPM"}]}, {"molecule": "CC(C)NCC(O)COc1ccc(CCOCC2CC2)cc1", "note": "(centres unmarked) [Betaxolol HCl]", "values": [{"measurement": "LogP Value", "result": 3}, {"measurement": "Solubility in Water (PPM)", "setting": "[1]", "result": 17190, "unit": "PPM"}]}, {"molecule": "CCNC(=O)CCC/C=C\\C[C@@H]1[C@@H](/C=C/[C@@H](O)CCc2ccccc2)[C@H](O)C[C@@H]1O", "note": "[Bimatoprost]", "values": [{"measurement": "LogP Value", "result": 3.2}, {"measurement": "Solubility in Water (PPM)", "setting": "[1]", "result": 19, "unit": "PPM"}]}, {"molecule": "Brc1c(NC2=NCCN2)ccc2nccnc12", "note": "[Brimonidine]", "values": [{"measurement": "Solubility in Water (PPM)", "setting": "[1]", "result": 150, "unit": "PPM"}]}, {"molecule": "CCN[C@H]1CN(CCCOC)S(=O)(=O)c2sc(S(N)(=O)=O)cc21", "note": "[Brinzolamide]", "values": [{"measurement": "LogP Value", "result": -1.8}, {"measurement": "Solubility in Water (PPM)", "setting": "[1]", "result": 713, "unit": "PPM"}]}, {"molecule": "Nc1c(CC(=O)O)cccc1C(=O)c1ccc(Br)cc1", "note": "[Bromfenac]", "values": [{"measurement": "LogP Value", "result": 3.4}, {"measurement": "Solubility in Water (PPM)", "setting": "[1]", "result": 12, "unit": "PPM"}]}, {"molecule": "O=C(O)c1cc(=O)c2c(OCC(O)COc3cccc4oc(C(=O)O)cc(=O)c34)cccc2o1", "note": "[Cromolyn Sodium]", "values": [{"measurement": "LogP Value", "result": 4.8}, {"measurement": "Solubility in Water (PPM)", "setting": "[1]", "result": 100000, "unit": "PPM"}]}, {"molecule": "CCCC(=O)O[C@]1(C(=O)COC(C)=O)CC[C@H]2[C@@H]3C[C@H](F)C4=CC(=O)C=C[C@]4(C)[C@@]3(F)[C@@H](O)C[C@@]21C", "note": "[Difluprednate]", "values": [{"measurement": "LogP Value", "result": 3.28}, {"measurement": "Solubility in Water (PPM)", "setting": "[1]", "result": 1, "unit": "PPM"}]}, {"molecule": "CCN[C@H]1C[C@H](C)S(=O)(=O)c2sc(S(N)(=O)=O)cc21", "note": "[Dorzolamide]", "values": [{"measurement": "LogP Value", "result": -1}, {"measurement": "Solubility in Water (PPM)", "setting": "[1]", "result": 699, "unit": "PPM"}]}, {"molecule": "CCOCCn1c(N2CCCN(C)CC2)nc2ccccc21", "note": "[Emedastine Difumarate]", "values": [{"measurement": "LogP Value", "result": 2.6}, {"measurement": "Solubility in Water (PPM)", "setting": "[1]", "result": 1440, "unit": "PPM"}]}, {"molecule": "NC1=NCC2c3ccccc3Cc3ccccc3N12", "note": "(centres unmarked) [Epinastine HCl]", "values": [{"measurement": "LogP Value", "result": 2.34}]}, {"molecule": "CC[C@H]1OC(=O)[C@H](C)[C@@H](O[C@H]2C[C@@](C)(OC)[C@@H](O)[C@H](C)O2)[C@H](C)[C@@H](O[C@@H]2O[C@H](C)C[C@H](N(C)C)[C@H]2O)[C@](C)(O)C[C@@H](C)C(=O)[C@H](C)[C@@H](O)[C@]1(C)O", "note": "[Erythromycin]", "values": [{"measurement": "LogP Value", "result": 2.6}, {"measurement": "Solubility in Water (PPM)", "setting": "[1]", "result": 2000, "unit": "PPM"}]}, {"molecule": "CC(=O)O[C@]1(C(C)=O)CC[C@H]2[C@@H]3C[C@H](C)C4=CC(=O)C=C[C@]4(C)[C@@]3(F)[C@@H](O)C[C@@]21C", "note": "[Fluorometholone Acetate]", "values": [{"measurement": "Solubility in Water (PPM)", "setting": "[1]", "result": 6.27, "unit": "PPM"}]}, {"molecule": "CC(C(=O)O)c1ccc(-c2ccccc2)c(F)c1", "note": "(centres unmarked) [Flurbiprofen]", "values": [{"measurement": "Solubility in Water (PPM)", "setting": "[1]", "result": 5, "unit": "PPM"}]}, {"molecule": "CC(C)Cc1ccc(C(C)C(=O)O)cc1", "note": "(centres unmarked) [Ibuprofen]", "values": [{"measurement": "Solubility in Water (PPM)", "setting": "[1]", "result": 21, "unit": "PPM"}]}, {"molecule": "O=C(c1ccccc1)c1ccc2n1CCC2C(=O)O", "note": "(centres unmarked) [Ketorolac Tromethamine]", "values": [{"measurement": "LogP Value", "result": -0.92}, {"measurement": "Solubility in Water (PPM)", "setting": "[1]", "result": 861, "unit": "PPM"}]}, {"molecule": "CN1CCC(=C2c3ccccc3CC(=O)c3sccc32)CC1", "note": "[Ketotifen Fumarate]", "values": [{"measurement": "LogP Value", "result": 3.49}, {"measurement": "Solubility in Water (PPM)", "setting": "[1]", "result": 7.87, "unit": "PPM"}]}, {"molecule": "CC(C)OC(=O)CCC/C=C\\C[C@@H]1[C@@H](CC[C@@H](O)CCc2ccccc2)[C@H](O)C[C@@H]1O", "note": "[Latanoprost]", "values": [{"measurement": "Solubility in Water (PPM)", "setting": "[1]", "result": 1.29, "unit": "PPM"}]}, {"molecule": "CC(C)(C)NC[C@H](O)COc1cccc2c1CCCC2=O", "note": "[Levobunolol HCl]", "values": [{"measurement": "Solubility in Water (PPM)", "setting": "[1]", "result": 251, "unit": "PPM"}]}, {"molecule": "N#Cc1cc(NC(=O)C(=O)O)c(Cl)c(NC(=O)C(=O)O)c1.NC(CO)(CO)CO.NC(CO)(CO)CO", "note": "[Lodoxamide Tromethamine]", "values": [{"measurement": "LogP Value", "result": 0.72}, {"measurement": "Solubility in Water (PPM)", "setting": "[1]", "result": 36.1, "unit": "PPM"}]}, {"molecule": "CCOC(=O)O[C@]1(C(=O)OCCl)CC[C@H]2[C@@H]3CCC4=CC(=O)C=C[C@]4(C)[C@H]3[C@@H](O)C[C@@]21C", "note": "[Loteprednol Etabonate]", "values": [{"measurement": "LogP Value", "result": 3.4}, {"measurement": "Solubility in Water (PPM)", "setting": "[1]", "result": 0.5, "unit": "PPM"}]}, {"molecule": "COc1c(N2C[C@@H]3CCCN[C@@H]3C2)c(F)cc2c(=O)c(C(=O)O)cn(C3CC3)c12", "note": "[Moxifloxacin]", "values": [{"measurement": "Solubility in Water (PPM)", "setting": "[1]", "result": 1146, "unit": "PPM"}]}, {"molecule": "CCCc1c2oc(C(=O)O)cc(=O)c2cc2c(=O)cc(C(=O)O)n(CC)c12", "note": "[Nedocromil Sodium]", "values": [{"measurement": "LogP Value", "result": 2.82}, {"measurement": "Solubility in Water (PPM)", "setting": "[1]", "result": 80.8, "unit": "PPM"}]}, {"molecule": "NC(=O)Cc1cccc(C(=O)c2ccccc2)c1N", "note": "[Nepafenac]", "values": [{"measurement": "LogP Value", "result": 1.53}, {"measurement": "Solubility in Water (PPM)", "setting": "[1]", "result": 14, "unit": "PPM"}]}, {"molecule": "CN(C)CC/C=C1/c2ccccc2COc2ccc(CC(=O)O)cc21", "note": "[Olopatadine HCl]", "values": [{"measurement": "LogP Value", "result": 3.4}, {"measurement": "Solubility in Water (PPM)", "setting": "[1]", "result": 31.3, "unit": "PPM"}]}, {"molecule": "CC(=O)OCC(=O)[C@@]1(O)CC[C@H]2[C@@H]3CCC4=CC(=O)C=C[C@]4(C)[C@H]3[C@@H](O)C[C@@]21C", "note": "[Prednisolone Acetate]", "values": [{"measurement": "LogP Value", "result": 1.332}]}, {"molecule": "CCC(=O)[C@@]1(C)[C@H](C)C[C@H]2[C@@H]3CCC4=CC(=O)C=C[C@]4(C)[C@H]3[C@@H](O)C[C@@]21C", "note": "[Rimexolone]", "values": [{"measurement": "LogP Value", "result": 4.2}, {"measurement": "Solubility in Water (PPM)", "setting": "[1]", "result": 0, "unit": "PPM"}]}, {"molecule": "C=CC[C@@H]1/C=C(\\C)C[C@H](C)C[C@H](OC)[C@H]2O[C@@](O)(C(=O)C(=O)N3CCCC[C@H]3C(=O)O[C@H](/C(C)=C/[C@@H]3CC[C@@H](O)[C@H](OC)C3)[C@H](C)[C@@H](O)CC1=O)[C@H](C)C[C@@H]2OC", "note": "[Tacrolimus]", "values": [{"measurement": "LogP Value", "result": 5.59}, {"measurement": "Solubility in Water (PPM)", "setting": "[1]", "result": 12, "unit": "PPM"}]}, {"molecule": "CC(C)OC(=O)CCC/C=C\\C[C@@H]1[C@@H](/C=C/C(F)(F)COc2ccccc2)[C@H](O)C[C@@H]1O", "note": "[Tafluprost]", "values": [{"measurement": "LogP Value", "result": 4.05}, {"measurement": "Solubility in Water (PPM)", "setting": "[1]", "result": 0, "unit": "PPM"}]}, {"molecule": "CC(C)(C)NC[C@H](O)COc1nsnc1N1CCOCC1", "note": "[Timolol Maleate]", "values": [{"measurement": "Solubility in Water (PPM)", "setting": "[1]", "result": 5000, "unit": "PPM"}]}, {"molecule": "NC[C@H]1O[C@H](O[C@H]2[C@H](O)[C@@H](O[C@H]3O[C@H](CO)[C@@H](O)[C@H](N)[C@H]3O)[C@H](N)C[C@@H]2N)[C@H](N)C[C@@H]1O", "note": "[Tobramycin]", "values": [{"measurement": "LogP Value", "result": -5.8}, {"measurement": "Solubility in Water (PPM)", "setting": "[1]", "result": 10000, "unit": "PPM"}]}, {"molecule": "CC(C)OC(=O)CCC/C=C\\C[C@@H]1[C@@H](/C=C/[C@@H](O)COc2cccc(C(F)(F)F)c2)[C@H](O)C[C@@H]1O", "note": "[Travoprost]", "values": [{"measurement": "LogP Value", "result": 4.6}, {"measurement": "Solubility in Water (PPM)", "setting": "[1]", "result": 16000, "unit": "PPM"}]}, {"molecule": "COc1cc(Cc2cnc(N)nc2N)cc(OC)c1OC", "note": "[Trimethoprim]", "values": [{"measurement": "Solubility in Water (PPM)", "setting": "[1]", "result": 999, "unit": "PPM"}]}, {"molecule": "Gentamicin", "values": [{"measurement": "LogP Value", "result": -3.1}]}, {"molecule": "Gramicidin", "values": [{"measurement": "Solubility in Water (PPM)", "setting": "[1]", "result": 6, "unit": "PPM"}]}, {"molecule": "Polymyxin B", "values": [{"measurement": "Solubility in Water (PPM)", "setting": "[1]", "result": 0, "unit": "PPM"}]}]}
